Patent publication US20250361230A1, “LATS Inhibitors and Uses Thereof” (The USA, as Represented by the Secretary, Dept. of Heath …, priority 2022, published 2025)

Molecular target: T1, LATS1 Kinase-NanoLuc fusion in HEK-293 cells (Homo sapiens, UniProt O95835)
T1 construct: host or cells: HEK-293
T1 sequence (O95835 1-1130): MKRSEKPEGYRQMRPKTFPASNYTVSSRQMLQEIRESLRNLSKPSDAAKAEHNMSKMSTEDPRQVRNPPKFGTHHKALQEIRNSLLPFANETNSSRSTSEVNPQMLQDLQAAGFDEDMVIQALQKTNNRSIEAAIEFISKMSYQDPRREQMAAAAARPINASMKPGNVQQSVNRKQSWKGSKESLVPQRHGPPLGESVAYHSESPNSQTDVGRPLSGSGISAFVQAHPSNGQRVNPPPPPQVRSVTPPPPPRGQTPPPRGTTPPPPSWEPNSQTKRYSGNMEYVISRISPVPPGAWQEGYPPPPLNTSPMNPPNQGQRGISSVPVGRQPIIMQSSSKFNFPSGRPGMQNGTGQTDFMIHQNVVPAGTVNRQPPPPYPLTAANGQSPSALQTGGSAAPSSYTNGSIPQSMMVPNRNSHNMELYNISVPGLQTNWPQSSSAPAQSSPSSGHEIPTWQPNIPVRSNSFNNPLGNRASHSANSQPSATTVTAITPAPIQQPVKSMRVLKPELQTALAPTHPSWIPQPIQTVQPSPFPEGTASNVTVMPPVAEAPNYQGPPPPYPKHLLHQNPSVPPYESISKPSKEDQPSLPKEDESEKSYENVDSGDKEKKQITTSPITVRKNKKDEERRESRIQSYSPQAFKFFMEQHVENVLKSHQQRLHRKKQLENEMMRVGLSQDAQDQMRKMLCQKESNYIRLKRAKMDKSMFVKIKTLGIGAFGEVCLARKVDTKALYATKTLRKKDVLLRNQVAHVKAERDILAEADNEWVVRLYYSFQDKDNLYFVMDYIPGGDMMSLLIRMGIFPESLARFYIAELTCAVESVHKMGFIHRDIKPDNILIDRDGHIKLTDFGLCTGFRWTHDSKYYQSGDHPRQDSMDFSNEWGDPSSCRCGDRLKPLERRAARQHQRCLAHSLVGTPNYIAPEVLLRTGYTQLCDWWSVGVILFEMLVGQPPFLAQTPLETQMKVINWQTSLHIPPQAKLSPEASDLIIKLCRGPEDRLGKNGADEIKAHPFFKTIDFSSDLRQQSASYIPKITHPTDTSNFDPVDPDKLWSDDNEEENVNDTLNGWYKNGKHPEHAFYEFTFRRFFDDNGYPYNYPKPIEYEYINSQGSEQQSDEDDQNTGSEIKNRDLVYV
Test: NanoBRET target engagement assay in transfected HEK-293 cells, LATS1
Format: cell-based
Conditions: Table 28, NanoBRET, HEK-293 cells; read-out: LATS1 (Cellular) IC50
Excerpt: The NanoBRET™ assay measures kinase engagement in real time in the context of the intact cell. The assay uses a Kinase-NanoLuc® fusion vector expressing a kinase protein to which a luciferase tag has been added, a cell-permeant fluorescent NanoBRET™ tracer, a NanoLuc® substrate, and an extracellular NanoLuc® inhibitor. Upon expression of the luciferase-tagged kinase, cells will produce a strong BRET signal only in the presence of the NanoBRET™ tracer. The extracellular NanoLuc® inhibitor ensures that the BRET signal observed emanates only from live cells. Because the BRET signal has tight distance constraints, addition of the test compound will decrease the BRET signal if the compound competes with the NanoBRET™ tracer for binding to the kinase domain. Under the appropriate tracer conditions established by the manufacturer, quantitative intracellular affinity and relative potency can then be determined using Mass Action model equations.
HEK-293 cells were purchased from ATCC. FuGENEHD Transfection Reagent, Kinase-NanoLuc® fusion plasmids, Transfection Carrier DNA, NanoBRET™ Tracers and dilution buffer, NanoBRET™ Nano-Glo Substrate, Extracellular NanoLuc® Inhibitor were obtained from Promega.
Assays were conducted following Promega assay protocol with some modifications as described further below. HEK-293 Cells were transiently transfected with Kinase-NanoLuc® Fusion Vector DNA by FuGENE HD Transfection Reagent. Test compounds were delivered into 384 well assay plate by Echo 550 (Labcyte Inc, Sunnyvale, CA). Transfected cells were harvested and mixed with NanoBRET™ Tracer Reagent and dispensed into 384 well plates and incubated at 37° C. in 5% CO2 cell culture incubator for 1 hour. The NanoBRET™ Nano-Glo Substrate plus Extracellular NanoLuc® Inhibitor Solution were added into the wells of the assay plate and incubated for 2-3 minutes at room temperature. The donor emission wavelength (460 nm) and acceptor emission wavelength (600 nm) were measured in the EnVision plate reader. The BRET Ratios were calculated. BRET Ratio=[(Acceptor sample÷Donor sample)−(Acceptor no-tracer control÷Donor no-tracer control)]. The IC50 values of compounds were calculated with Prism GraphPad program.
• 1. Transient Transfection of HEK-293 Cells NanoLuc® Fusion Vector DNA • 1). Cultivate HEK-293 cells (70-80% confluence) appropriately prior to assay. Trypsinize and collect HEK-293 cells. • 2). Prepare lipid: DNA complexes as follows: • a. Prepare a […] solution of DNA in Opti-MEM™ without serum that consists of the following ratios of carrier DNA and DNA encoding NanoLuc® fusion. 9.0 µg/mL of Transfection Carrier DNA, […] of NanoLuc® fusion vector DNA and 1 mL of Opti-MEM™ without phenol red. Mix thoroughly. • b. Add 30 μl of FuGENE HD Transfection Reagent into each milliliter of DNA mixture to form lipid: DNA complex. • c. Mix by inversion 10 times. • d. Incubate at ambient temperature for 20 minutes to allow complexes to form. • 3). In a sterile, conical tube, mix 1 part of lipid: DNA complex with 20 parts of HEK-293 cells in suspension. Mix gently by inversion 5 times. • 4). Dispense cells+lipid: DNA complex into a sterile tissue culture dish and incubate for 22-24 hours. • 2. Addition of Test Compounds (dry plate shooting): Each test compound is delivered from the compound source plate to the wells of 384-well white NBS plate by Echo 550. • 3. Preparation of Cells with NanoBRET™ Tracer Reagent • 1). Remove medium from dish with transfected HEK-293 cells via aspiration, trypsinize and allow cells to dissociate from the dish. • 2). Neutralize trypsin using medium containing serum and centrifuge at 200× g for 5 minutes to pellet the cells. Adjust the cell density to 2×10^5 cells/mL in Opti-MEM™ without phenol red. • 3). Prepare Complete 20× NanoBRET™ Tracer Reagent with Tracer Dilution Buffer. • 4). Dispense one part of Complete 20× NanoBRET™ Tracer Reagent to 20 parts of cells in the tube. Mix gently by inversion 10 times. • 5). […]

Row | Compound | IC50
1 | C[C@@H]1CN(C)C[C@H](C)[C@@]1(O)c1ccc(-c2ccnc3[nH]cc(F)c23)cc1 [Compound 39, (3R,4s,5S)-4-(4-(3-fluoro-1H-pyrrolo[2,3-b]pyridin-4-yl)phenyl)-1,3,5-trimethylpiperidin-4-ol] | 19000 nM
2 | C[C@@H]1CN(C)C[C@H](C)[C@@]1(O)c1ccc(-c2ccnc3[nH]cc(F)c23)nc1 [Compound 41, (3R,4s,5S)-4-(6-(3-fluoro-1H-pyrrolo[2,3-b]pyridin-4-yl)pyridin-3-yl)-1,3,5-trimethylpiperidin-4-ol] | 115 nM
3 | C[C@@H]1CN(C2COC2)C[C@H](C)[C@@]1(O)c1c(F)cc(-c2ccnc3[nH]cc(F)c23)cc1F [Compound 45, (3S,4s,5R)-4-(2,6-difluoro-4-(3-fluoro-1H-pyrrolo[2,3-b]pyridin-4-yl)phenyl)-3, S-dimethyl-1-(oxetan-3-yl)piperidin-4-ol] | 813 nM
4 | C[C@@H]1CN(C2CCC2)C[C@H](C)[C@@]1(O)c1c(F)cc(-c2ccnc3[nH]cc(F)c23)cc1F [Compound 46, (3R,4s,5S)-1-cyclobutyl-4-(2,6-difluoro-4-(3-fluoro-1H-pyrrolo[2,3-b]pyridin-4-yl)phenyl)-3,5-dimethylpiperidin-4-ol] | 462 nM
5 | Cc1cc(-c2ccnc3[nH]cc(F)c23)ncc1[C@@]1(O)[C@H](C)CN(C2CCC2)C[C@@H]1C [Compound 48, (3R,4s,5S)-1-cyclobutyl-4-(6-(3-fluoro-1H-pyrrolo[2,3-b]pyridin-4-yl)-4-methylpyridin-3-yl)-3,5-dimethylpiperidin-4-ol] | 12600 nM
6 | Cc1cc(-c2ccnc3[nH]cc(F)c23)ncc1[C@@]1(O)[C@H](C)CN(C2CCS(=O)(=O)CC2)C[C@@H]1C [Compound 51, 4-((3R,4s,5S)-4-(6-(3-fluoro-1H-pyrrolo[2,3-b]pyridin-4-yl)-4-methylpyridin-3-yl)-4-hydroxy-3,5-dimethylpiperidin-1-yl)tetrahydro-2H-thiopyran 1,1-dioxide] | > 30000 nM
7 | Cc1cc(-c2ccnc3[nH]cc(F)c23)ccc1[C@@]1(O)[C@H](C)CN(C2CCC2)C[C@@H]1C [Compound 54, (3R,4s,5S)-1-cyclobutyl-4-(4-(3-fluoro-1H-pyrrolo[2,3-b]pyridin-4-yl)-2-methylphenyl)-3,5-dimethylpiperidin-4-ol] | 87 nM
8 | Cc1cc(-c2ccnc3[nH]cc(F)c23)ccc1[C@@]1(O)[C@H](C)CN(C2CCS(=O)(=O)CC2)C[C@@H]1C [Compound 55, 4-((3R,4s, 5S)-4-(4-(3-fluoro-1H-pyrrolo[2,3-b]pyridin-4-yl)-2-methylphenyl)-4-hydroxy-3,5S-dimethylpiperidin-1-yl)tetrahydro-2H-thiopyran 1,1-dioxide] | 367 nM
9 | Cc1cc(-c2ccnc3[nH]cc(F)c23)cc(F)c1[C@@]1(O)[C@H](C)CN(C2CCS(=O)(=O)CC2)C[C@@H]1C [Compound 57, 4-((3R,4s,5S)-4-(2-fluoro-4-(3-fluoro-1H-pyrrolo[2,3-b]pyridin-4-yl)-6-methylphenyl)-4-hydroxy-3,5-dimethylpiperidin-1-yl)tetrahydro-2H-thiopyran 1,1-dioxide] | 36.9 nM
10 | C[C@@H]1CN(C(=O)CN)C[C@H](C)[C@@]1(O)c1c(F)cc(-c2ccnc3[nH]cc(F)c23)cc1F [Compound 58] | 147 nM
11 | Cc1cc(-c2ccnc3[nH]cc(F)c23)ccc1[C@@]1(O)[C@H](C)CN(C(=O)CN)C[C@@H]1C [Compound 60, 2-amino-1-((3R,4s,5S)-4-(4-(3-fluoro-1H-pyrrolo[2,3-b]pyridin-4-yl)-2-methylphenyl)-4-hydroxy-3,5-dimethylpiperidin-1-yl)ethan-1-one] | 21.5 nM
12 | Cc1cc(-c2ccnc3[nH]cc(F)c23)cc(F)c1[C@@]1(O)[C@H](C)CN(C(=O)CN)C[C@@H]1C [Compound 61, 2-amino-1-((3R,4s,5S)-4-(2-fluoro-4-(3-fluoro-1H-pyrrolo[2,3-b]pyridin-4-yl)-6-methylphenyl)-4-hydroxy-3,5-dimethylpiperidin-1-yl)ethan-1-one] | 4 nM
13 | C[C@@H]1CN(CC(N)=O)C[C@H](C)[C@@]1(O)c1c(F)cc(-c2ccnc3[nH]cc(F)c23)cc1F [Compound 88, 2-((3R,4s,5S)-4-(2,6-difluoro-4-(3-fluoro-1H-pyrrolo[2,3-b]pyridin-4-yl)phenyl)-4-hydroxy-3,5-dimethylpiperidin-1-yl)acetamide] | 205 nM
14 | C[C@@H]1CN(C2CCNCC2)C[C@H](C)[C@@]1(O)c1c(F)cc(-c2ccnc3[nH]cc(F)c23)cc1F [Compound 90, (3R,4s,5S)-4-(2,6-difluoro-4-(3-fluoro-1H-pyrrolo[2,3-b]pyridin-4-yl)phenyl)-3,5-dimethyl-[1,4′-bipiperidin]-4-ol] | 338 nM
15 | OC1(c2ccc(-c3ccnc4[nH]cc(F)c34)cc2)CCNCC1 [Compound 110, 4-(4-(3-fluoro-1H-pyrrolo[2,3-b]pyridin-4-yl)phenyl)piperidin-4-ol] | 17700 nM
16 | OC1(c2ccc(-c3ccnc4[nH]ccc34)cc2)CCNCC1 [Compound 111, 4-(4-(1H-pyrrolo[2,3-b]pyridin-4-yl)phenyl)piperidin-4-ol] | > 50000 nM
17 | Cc1cc(-c2ccnc3[nH]cc(F)c23)cc(F)c1C1(O)CC2(CN(C3COC3)C2)C1 [Compound 139, 6-(2-fluoro-4-(3-fluoro-1H-pyrrolo[2,3-b]pyridin-4-yl)-6-methylphenyl)-2-(oxetan-3-yl)-2-azaspiro[3.3]heptan-6-ol] | 58.2 nM
18 | O=C([C@H]1CCCN1)N1CCC(O)(c2ccc(-c3ccnc4[nH]cc(F)c34)cc2)CC1 [Compound 142] | 1840 nM
19 | Fc1c[nH]c2nccc(-c3ccc(C4CCNCC4)cc3)c12 [Compound 169, 3-fluoro-4-(4-(piperidin-4-yl)phenyl)-1H-pyrrolo[2,3-b]pyridine] | 25800 nM
